In paper PMC10739865, “The Mycobacterium tuberculosis methyltransferase Rv2067c manipulates host epigenetic programming to promote its own survival” (Nature Communications, 2023):

Columns and labels:
Rv2067c [1] = target: T1, Rv2067c (Mycobacterium tuberculosis, UniProt P9WLL9)
Rv2067c [2] = target: T1, Rv2067c; remark: listed apart in the source

T1 sequence (P9WLL9 whole entry): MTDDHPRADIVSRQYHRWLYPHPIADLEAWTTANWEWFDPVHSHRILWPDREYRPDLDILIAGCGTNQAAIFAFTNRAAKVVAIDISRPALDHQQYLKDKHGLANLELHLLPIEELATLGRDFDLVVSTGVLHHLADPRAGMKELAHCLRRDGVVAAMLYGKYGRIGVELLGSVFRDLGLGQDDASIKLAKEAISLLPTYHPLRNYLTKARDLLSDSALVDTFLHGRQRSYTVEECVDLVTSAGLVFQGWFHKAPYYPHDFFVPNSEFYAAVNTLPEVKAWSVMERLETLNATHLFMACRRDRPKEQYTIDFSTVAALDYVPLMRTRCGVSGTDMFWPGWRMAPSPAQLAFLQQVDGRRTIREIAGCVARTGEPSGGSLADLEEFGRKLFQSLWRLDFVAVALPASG

| SMILES | radiometric methyltransferase assay (scintillation counting, autoradiography) (Rv2067c [1]) | X-ray crystallography, 2.40 Å (Rv2067c [2]) |
| --- | --- | --- |
| C[S+](CC[C@H](N)C(=O)O)C[C@H]1O[C@@H](n2cnc3c(N)ncnc32)[C@H](O)[C@@H]1O (stereo partly drawn) [S-Adenosyl-L-methionine] | Rv2067c as MTase, and tritiated SAM as a methyl donor, methylation of histones was detected | – |
| Nc1ncnc2c1ncn2[C@@H]1O[C@H](CSCC[C@H](N)C(=O)O)[C@@H](O)[C@H]1O [S-adenosyl-L-homocysteine] | – | The coordinates for Rv2067c-SAH structure have been deposited in the Protein Data Bank |
